# Experiments:
# LnCap prostate xenograft = test: Subcutaneous LnCap prostate xenograft model (Example 25); type: in vivo, mice; conditions: day 17
# Procedure: (§1) A subcutaneous xenograft tumor model of human tumor immunodeficient mice was established by cell inoculation: tumor cells in logarithmic growth phase were collected, counted, resuspended in 1×PBS, and the cell suspension concentration was adjusted to 2.5-5×10^7/mL. The tumor cells were inoculated subcutaneously in the right side of immunodeficient mice with a 1 ml syringe ([…]), 5-10×10^6/0.2 mL/mouse. All animal experiments were strictly in accordance with the specifications for the use and management of experimental animals in GenePharma Co., Ltd. and Suzhou Ascentage Pharma Co., Ltd. The calculation of relevant parameters refers to the Chinese NMPA “Guidelines for Non-Clinical Research Techniques of Cytotoxic Anti-tumor Drugs”.
# (§2) Animal body weight and tumor size were measured twice weekly during the experiment. The state of the animal and the presence or absence of death were observed every day. The growth of tumor and the effects of treatment on normal behavior of animals were monitored routinely, specifically involving experimental animal activity, feeding and drinking, weight gain or loss, eyes, clothing hair and other abnormalities. The deaths and clinical symptoms observed during the experiment were recorded in the raw data. All operations for administration and measurement of mouse body weight and tumor volume were performed in a clean bench. According to the requirements of the experimental protocol, after the end of the last administration, plasma and tumor tissues were collected, weighed and photographed. The plasma and tumor samples were frozen at −80° C. for ready-to-use.
# (§3) Tumor volume (TV) is calculated as: TV=a×b^2/2, wherein a and b represent the length and width of the tumor to be measured, respectively.
# (§4) The relative tumor volume (RTV) is calculated as: RTV=Vt/V1, wherein V1 is the tumor volume at the start of grouping and administration, and Vt is the tumor volume measured on the t day after administration.
# (§5) The evaluation index of anti-tumor activity is the relative tumor proliferation rate T/C (%), and the calculation formula thereof is: relative tumor proliferation rate T/C (%)=(TRTV/CRTV)×100%, TRTV is the RTV of treatment group, CRTV is the RTV of solvent control group.
# (§6) A dose of drug is considered to be severely toxic if the body weight of mouse is reduced by more than 20% or the number of drug-related deaths exceeds 20%.
# (§7) According to the description by Clarke R., Issues in experimental design and endpoint analysis in the study of experimental cytotoxic agents in vivo in breast cancer and other models [J]. Breast Cancer Research & Treatment, 1997, 46(2-3): 255-278, synergy analysis was evaluated using the following formula: synergy factor=((A/C)×(B/C))/(AB/C); A=RTV value of drug A alone group; B=RTV value of drug B alone group; C=RTV value of the solvent control group, and AB=RTV value of the A and B combination group.
# In this experiment, subcutaneous LnCap prostate xenograft model was established to evaluate the anti-tumor effect of Compound 73 in combination with Compound C. The dosing regimen was as follows: • Compound C: 100 mg/kg, orally, every other day, for day 1-day 9; 50 mg/kg, orally, every other day, for day 10-day 28; • Compound 73: 100 mg/kg, orally, once per day, for a total of 28 days;
# The dosing regimen of each drug in the dosing regimen for the combination is the same as the dosing regimen for the single drug, for a total of 28 days.
# EED (1-441)-His protein = molecular target: T1, EED (1-441)-His protein (Homo sapiens, UniProt O75530); test: EED-H3K27Me3 peptide competition binding assay by AlphaScreen; conditions: Table 4A, read-out: Alpha screen
# T1 construct: 20 nM EED (1-441)-His protein
# How it was run: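 Readout was AlphaScreen emission at 615 nm after 680 nm excitation, with 10 μg/ml final each of streptavidin donor and nickel chelate acceptor beads, 1 h at RT in the dark. Beforehand, compound met the His-tagged EED(1-441) for 15 min and then biotinylated H3K27Me3(19-33) peptide for 30 min; both were added as 20 nM solutions, buffer 25 mM HEPES pH 8, Tween-20, BSA. Percent activity left was fitted to give IC50.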
# [1] = tested on: BAP1 mut mesothelioma PDX model; test: BAP1 mut mesothelioma PDX model (Examples 15-17); type: in vivo, mice; conditions: orally, once per day, 28 days
# Procedure: as §1, §2, §3, §4, §5, §6, §7
# In this experiment, a BAP1 mut mesothelioma PDX model (Lide Biotech) was established to evaluate the anti-tumor effect of Compound 73. The dosing regimen was as follows: • Compound 73: 50 mg/kg, orally, once per day, for a total of 28 days; • Compound 73: 100 mg/kg, orally, once per day, for a total of 28 days;
# In this experiment, a BAP1 mut mesothelioma PDX model (Lide Biotech) was established to evaluate the anti-tumor effect of Compound 73 in combination with Compound A-1. […]
# [2] = tested on: NCI-H28(X1) (BAP1mut, UHRF1high, TP53WT, CDKN2Adel, FGFRlow, NF2WT) subcutaneous mesothelioma xenograft; test: NCI-H28(X1) subcutaneous mesothelioma xenograft model (Example 23); type: in vivo, mice; conditions: Compound C 50 mg/kg orally every other day, Compound 73 100 mg/kg orally once per day, 28 days, alone or combined
# Procedure: as §1, §2, §3, §4
# The evaluation index of anti-tumor activity is the relative tumor proliferation rate T/C (%), and the calculation formula thereof is: relative tumor proliferation rate T/C (%)=(TRTV/CRTV)×100%, TRTV is the RTV of treatment group, CRTV is the RTV of solvent control group. […]
# as §7, with “group. […]” for “group.”
# T1 sequence (O75530 whole entry): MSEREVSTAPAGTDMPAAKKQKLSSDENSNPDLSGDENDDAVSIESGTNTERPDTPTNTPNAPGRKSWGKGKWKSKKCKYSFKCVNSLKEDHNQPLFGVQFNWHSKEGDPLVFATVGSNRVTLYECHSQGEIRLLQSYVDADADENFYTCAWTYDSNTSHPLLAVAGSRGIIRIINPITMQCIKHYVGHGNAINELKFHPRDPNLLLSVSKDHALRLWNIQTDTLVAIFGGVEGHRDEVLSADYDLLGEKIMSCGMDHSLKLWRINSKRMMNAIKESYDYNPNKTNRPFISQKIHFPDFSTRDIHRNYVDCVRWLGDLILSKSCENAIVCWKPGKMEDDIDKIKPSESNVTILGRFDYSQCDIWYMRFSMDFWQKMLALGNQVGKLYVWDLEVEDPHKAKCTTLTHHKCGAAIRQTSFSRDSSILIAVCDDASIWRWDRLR
smiles,measurement,setting,value
"CC(C)N1Cc2cc(C(F)(F)F)ncc2-c2cnc(NCc3c(F)ccc4c3CCO4)n3cnc(c23)C1=O [Compound 73, 12-(((5-fluoro-2,3-dihydrobenzofuran-4-yl)methyl)amino)-4-isopropyl-7-(trifluoromethyl)-4,5-dihydro-3H-2,4,8,11,12a-pentaazabenzo[4,5]cycloocta[1,2,3-cd]inden-3-one]",RTV@ D 17,"LnCap prostate xenograft; LnCap xenograft, Compound 73 100 mg/kg orally once per day, Compound C 100 mg/kg/50 mg/kg orally every other day",4.09 ± 0.75
same,T/C(%) @ D 17,"LnCap prostate xenograft; LnCap xenograft, Compound 73 100 mg/kg, Compound C 100 mg/kg/50 mg/kg",91.30%
same,T/C value,"LnCap prostate xenograft; Compound C 100 mg/kg every other day day 1-9 then 50 mg/kg day 10-28, Compound 73 100 mg/kg once per day, orally, alone or combined",91.30%
same,IC50,EED (1-441)-His protein,0.5 nM
same,T/C (%),"[1]; Compound 73 50 mg/kg, end of study",69.7%
same,T/C (%),"[1]; Compound 73 100 mg/kg, 100 mg/kg",60%
same,antitumor activity (in words),"[1]; Compound 73 single agent, 50 and 100 mg/kg",dose-dependent antitumor activity
same,T/C (%) @ D 29,[2],33.06%
same,RTV@ D 29,[2]; mean ± SEM,5.05 ± 0.41
